Laboratory results published in ChEMBL document CHEMBL5724806, “Unraveling interindividual differences and functional consequences of gut microbial metabolism of immunosuppressants” (2024).

Experiments:
Assay type in all cases: ADME
[1] = The drug is tested on Parabacteroides merdae strain: DSM19495 for biotransformation under anaerobic condition. The drug concentrations were measured over 6 timepoints collected between 0 and 12 hours of incubation by liquid-chromatography-coupled mass spectrometry (LC–MS); set-up: dose 5 uM, timepoint 0, 1.5, 3, 6, 9, 12 hours; settings: 5 µM
[2] = (§1) The drug is tested on the gut metagenome community of A-06 with ENA study accession number: PRJEB31790 for biotransformation under microaerobic condition. The drug concentrations were measured over 7 timepoints collected between 0 and 12 hours of incubation by liquid-chromatography-coupled mass spectrometry (LC–MS); set-up: dose 5 uM, timepoint 0, 0.75, 1.5, 3, 6, 9, 12 hours; settings: 5 µM
[3] = as §1, with “P-04” for “A-06”, “anaerobic” for “microaerobic”; set-up: dose 5 uM, timepoint 0, 0.75, 1.5, 3, 6, 9, 12 hours; settings: 5 µM
[4] = The drug is tested on Actinomyces naeslundi strain: DSM43013 for biotransformation under microaerobic condition. The drug concentrations were measured over 6 timepoints collected between 0 and 12 hours of incubation by liquid-chromatography-coupled mass spectrometry (LC–MS); set-up: dose 5 uM, timepoint 0, 1.5, 3, 6, 9, 12 hours; settings: actinomyces naeslundii, 5 µM
[5] = The drug is tested on Streptococcus anginosus strain: DSM20563 for biotransformation under anaerobic condition. The drug concentrations were measured over 6 timepoints collected between 0 and 12 hours of incubation by liquid-chromatography-coupled mass spectrometry (LC–MS); set-up: dose 5 uM, timepoint 0, 1.5, 3, 6, 9, 12 hours; settings: 5 µM
[6] = as §1, with “T-01” for “A-06”; set-up: dose 5 uM, timepoint 0, 0.75, 1.5, 3, 6, 9, 12 hours; settings: 5 µM
[7] = as §1, with “P-03” for “A-06”, “anaerobic” for “microaerobic”; set-up: dose 5 uM, timepoint 0, 0.75, 1.5, 3, 6, 9, 12 hours; settings: 5 µM
[8] = as §1, with “A-03” for “A-06”; set-up: dose 5 uM, timepoint 0, 0.75, 1.5, 3, 6, 9, 12 hours; settings: 5 µM
[9] = The drug is tested on Bifidobacterium adolescentis strain: DSM20083 for biotransformation under anaerobic condition. The drug concentrations were measured over 6 timepoints collected between 0 and 12 hours of incubation by liquid-chromatography-coupled mass spectrometry (LC–MS); set-up: dose 5 uM, timepoint 0, 1.5, 3, 6, 9, 12 hours; settings: 5 µM
[10] = as §1, with “T-02” for “A-06”; set-up: dose 5 uM, timepoint 0, 0.75, 1.5, 3, 6, 9, 12 hours; settings: 5 µM
[11] = The drug is tested on Capnocytophaga ochracea strain: DSM7271 for biotransformation under anaerobic condition. The drug concentrations were measured over 6 timepoints collected between 0 and 12 hours of incubation by liquid-chromatography-coupled mass spectrometry (LC–MS); set-up: dose 5 uM, timepoint 0, 1.5, 3, 6, 9, 12 hours; settings: 5 µM
[12] = as §1, with “A-02” for “A-06”; set-up: dose 5 uM, timepoint 0, 0.75, 1.5, 3, 6, 9, 12 hours; settings: 5 µM
[13] = as §1, with “T-04” for “A-06”; set-up: dose 5 uM, timepoint 0, 0.75, 1.5, 3, 6, 9, 12 hours; settings: 5 µM
[14] = as §1, with “T-02” for “A-06”, “anaerobic” for “microaerobic”; set-up: dose 5 uM, timepoint 0, 0.75, 1.5, 3, 6, 9, 12 hours; settings: 5 µM
[15] = The drug is tested on Gemella morbillorum strain: DSM20572 for biotransformation under anaerobic condition. The drug concentrations were measured over 6 timepoints collected between 0 and 12 hours of incubation by liquid-chromatography-coupled mass spectrometry (LC–MS); set-up: dose 5 uM, timepoint 0, 1.5, 3, 6, 9, 12 hours; settings: 5 µM
[16] = as §1, with “T-03” for “A-06”, “anaerobic” for “microaerobic”; set-up: dose 5 uM, timepoint 0, 0.75, 1.5, 3, 6, 9, 12 hours; settings: 5 µM
[17] = The drug is tested on Bacteroides ovatus strain: ATCC 8483 for biotransformation under anaerobic condition. The drug concentrations were measured over 6 timepoints collected between 0 and 12 hours of incubation by liquid-chromatography-coupled mass spectrometry (LC–MS); set-up: dose 5 uM, timepoint 0, 1.5, 3, 6, 9, 12 hours; settings: 5 µM
[18] = The drug is tested on Gemella haemolysans strain: DSM107751 for biotransformation under microaerobic condition. The drug concentrations were measured over 6 timepoints collected between 0 and 12 hours of incubation by liquid-chromatography-coupled mass spectrometry (LC–MS); set-up: dose 5 uM, timepoint 0, 1.5, 3, 6, 9, 12 hours; settings: 5 µM
[19] = The drug is tested on Bifidobacterium longum strain: DSM20088 for biotransformation under microaerobic condition. The drug concentrations were measured over 6 timepoints collected between 0 and 12 hours of incubation by liquid-chromatography-coupled mass spectrometry (LC–MS); set-up: dose 5 uM, timepoint 0, 1.5, 3, 6, 9, 12 hours; settings: 5 µM
[20] = The drug is tested on Actinomyces naeslundi strain: DSM43013 for biotransformation under anaerobic condition. The drug concentrations were measured over 6 timepoints collected between 0 and 12 hours of incubation by liquid-chromatography-coupled mass spectrometry (LC–MS); set-up: dose 5 uM, timepoint 0, 1.5, 3, 6, 9, 12 hours; settings: actinomyces naeslundii, 5 µM
[21] = The drug is tested on Bacteroides vulgatus strain: DSM1447 for biotransformation under anaerobic condition. The drug concentrations were measured over 6 timepoints collected between 0 and 12 hours of incubation by liquid-chromatography-coupled mass spectrometry (LC–MS); set-up: dose 5 uM, timepoint 0, 1.5, 3, 6, 9, 12 hours; settings: phocaeicola vulgatus, 5 µM
[22] = The drug is tested on Eubacterium rectale strain: DSM17629 for biotransformation under anaerobic condition. The drug concentrations were measured over 6 timepoints collected between 0 and 12 hours of incubation by liquid-chromatography-coupled mass spectrometry (LC–MS); set-up: dose 5 uM, timepoint 0, 1.5, 3, 6, 9, 12 hours; settings: agathobacter rectalis, 5 µM
[23] = as §1, with “A-01” for “A-06”; set-up: dose 5 uM, timepoint 0, 0.75, 1.5, 3, 6, 9, 12 hours; settings: 5 µM
[24] = as §1, with “T-04” for “A-06”, “anaerobic” for “microaerobic”; set-up: dose 5 uM, timepoint 0, 0.75, 1.5, 3, 6, 9, 12 hours; settings: 5 µM
[25] = The drug is tested on Clostridium bolteae strain: DSM15670 for biotransformation under anaerobic condition. The drug concentrations were measured over 6 timepoints collected between 0 and 12 hours of incubation by liquid-chromatography-coupled mass spectrometry (LC–MS); set-up: dose 5 uM, timepoint 0, 1.5, 3, 6, 9, 12 hours; settings: enterocloster bolteae, 5 µM
[26] = The drug is tested on Odoribacter splanchnicus strain: DSM20712 for biotransformation under anaerobic condition. The drug concentrations were measured over 6 timepoints collected between 0 and 12 hours of incubation by liquid-chromatography-coupled mass spectrometry (LC–MS); set-up: dose 5 uM, timepoint 0, 1.5, 3, 6, 9, 12 hours; settings: 5 µM
[27] = The drug is tested on Lactobacillus fermentum strain: DSM20052 for biotransformation under microaerobic condition. The drug concentrations were measured over 6 timepoints collected between 0 and 12 hours of incubation by liquid-chromatography-coupled mass spectrometry (LC–MS); set-up: dose 5 uM, timepoint 0, 1.5, 3, 6, 9, 12 hours; settings: limosilactobacillus fermentum, 5 µM
[28] = The drug is tested on Bacteroides xylanisolvens strain: HM 722 for biotransformation under anaerobic condition. The drug concentrations were measured over 6 timepoints collected between 0 and 12 hours of incubation by liquid-chromatography-coupled mass spectrometry (LC–MS); set-up: dose 5 uM, timepoint 0, 1.5, 3, 6, 9, 12 hours; settings: 5 µM
[29] = The drug is tested on Streptococcus sanguinis strain: DSM20567 for biotransformation under microaerobic condition. The drug concentrations were measured over 6 timepoints collected between 0 and 12 hours of incubation by liquid-chromatography-coupled mass spectrometry (LC–MS); set-up: dose 5 uM, timepoint 0, 1.5, 3, 6, 9, 12 hours; settings: 5 µM
[30] = as §1, with “anaerobic” for “microaerobic”; set-up: dose 5 uM, timepoint 0, 0.75, 1.5, 3, 6, 9, 12 hours; settings: 5 µM

Row | Bacterial Biotransformation [1] | Bacterial Biotransformation [2] | Bacterial Biotransformation [3] | Bacterial Biotransformation [4] | Bacterial Biotransformation [5] | Bacterial Biotransformation [6] | Bacterial Biotransformation [7] | Bacterial Biotransformation [8] | Bacterial Biotransformation [9] | Bacterial Biotransformation [10] | Bacterial Biotransformation [11] | Bacterial Biotransformation [12] | Bacterial Biotransformation [13] | Bacterial Biotransformation [14] | Bacterial Biotransformation [15] | Bacterial Biotransformation [16] | Bacterial Biotransformation [17] | Bacterial Biotransformation [19] | Bacterial Biotransformation [20] | SMILES | Bacterial Biotransformation [18] | other results
1 | Compound NOT metabolized | Compound metabolized | Compound NOT metabolized | Compound NOT metabolized | Compound NOT metabolized | Compound metabolized | Compound NOT metabolized | Compound NOT metabolized | Compound NOT metabolized | Compound metabolized | Compound NOT metabolized | Compound metabolized | Compound NOT metabolized | Compound metabolized | Compound NOT metabolized | Compound NOT metabolized | Compound NOT metabolized | Compound NOT metabolized | Compound NOT metabolized | C[C@@H]1C[C@H]2[C@@H]3CCC4=CC(=O)C=C[C@]4(C)[C@@]3(F)[C@@H](O)C[C@]2(C)[C@@]1(O)C(=O)CO [DEXAMETHASONE] | Compound NOT metabolized | Bacterial Biotransformation [21]: Compound NOT metabolized; Bacterial Biotransformation [22]: Compound NOT metabolized; Bacterial Biotransformation [23]: Compound NOT metabolized; Bacterial Biotransformation [24]: Compound NOT metabolized; Bacterial Biotransformation [25]: Compound NOT metabolized; Bacterial Biotransformation [26]: Compound NOT metabolized; Bacterial Biotransformation [27]: Compound NOT metabolized; Bacterial Biotransformation [28]: Compound NOT metabolized; Bacterial Biotransformation [29]: Compound NOT metabolized; Bacterial Biotransformation [30]: Compound metabolized
2 | Compound NOT metabolized | Compound metabolized | Compound metabolized | Compound NOT metabolized | Compound NOT metabolized | Compound metabolized | Compound metabolized | Compound metabolized | Compound NOT metabolized | Compound metabolized | Compound NOT metabolized | Compound metabolized | Compound NOT metabolized | Compound metabolized | Compound NOT metabolized | Compound NOT metabolized | Compound NOT metabolized | Compound NOT metabolized | Compound NOT metabolized | C[C@]12CCC(=O)C=C1CC[C@@H]1[C@@H]2C(=O)C[C@@]2(C)[C@H]1CC[C@]2(O)C(=O)CO [CORTISONE] | Compound NOT metabolized | Bacterial Biotransformation [21]: Compound NOT metabolized; Bacterial Biotransformation [22]: Compound NOT metabolized; Bacterial Biotransformation [23]: Compound metabolized; Bacterial Biotransformation [24]: Compound NOT metabolized; Bacterial Biotransformation [25]: Compound NOT metabolized; Bacterial Biotransformation [26]: Compound NOT metabolized; Bacterial Biotransformation [27]: Compound NOT metabolized; Bacterial Biotransformation [28]: Compound NOT metabolized; Bacterial Biotransformation [29]: Compound NOT metabolized; Bacterial Biotransformation [30]: Compound metabolized
3 | Compound NOT metabolized | Compound metabolized | Compound NOT metabolized | Compound NOT metabolized | Compound NOT metabolized | Compound NOT metabolized | Compound metabolized | Compound NOT metabolized | Compound NOT metabolized | Compound NOT metabolized | Compound NOT metabolized | Compound metabolized | Compound NOT metabolized | Compound NOT metabolized | Compound NOT metabolized | Compound NOT metabolized | Compound metabolized | Compound NOT metabolized | Compound NOT metabolized | CNC(=C[N+](=O)[O-])NCCSCc1ccc(CN(C)C)o1 [RANITIDINE] | Compound NOT metabolized | Bacterial Biotransformation [21]: Compound NOT metabolized; Bacterial Biotransformation [22]: Compound NOT metabolized; Bacterial Biotransformation [23]: Compound NOT metabolized; Bacterial Biotransformation [24]: Compound NOT metabolized; Bacterial Biotransformation [25]: Compound NOT metabolized; Bacterial Biotransformation [26]: Compound NOT metabolized; Bacterial Biotransformation [27]: Compound NOT metabolized; Bacterial Biotransformation [28]: Compound metabolized; Bacterial Biotransformation [29]: Compound NOT metabolized; Bacterial Biotransformation [30]: Compound metabolized
